The results in this text go back to US5583227A, “Antiulcer compounds having a substituted alkynyl or quinoxaline nucleus and methods of making thereof” (Mochida Pharmaceutical Co. Ltd., priority 1994, dated 1996).

Read-outs that look alike come from different tables or passages of the source. Bounds are passed on as bounds.

For data set [1], the target named is T1, H^+,K^+ adenosine triphosphatase (Sus scrofa, UniProt P19156).
T1 construct: hog stomach was homogenized and subjected to ultracentrifugation to obtain a microsome fraction; from tissue; host or cells: hog stomach, microsome fraction (discontinuous Ficoll gradient)
T1 sequence (P19156 2-1034 limits assumed): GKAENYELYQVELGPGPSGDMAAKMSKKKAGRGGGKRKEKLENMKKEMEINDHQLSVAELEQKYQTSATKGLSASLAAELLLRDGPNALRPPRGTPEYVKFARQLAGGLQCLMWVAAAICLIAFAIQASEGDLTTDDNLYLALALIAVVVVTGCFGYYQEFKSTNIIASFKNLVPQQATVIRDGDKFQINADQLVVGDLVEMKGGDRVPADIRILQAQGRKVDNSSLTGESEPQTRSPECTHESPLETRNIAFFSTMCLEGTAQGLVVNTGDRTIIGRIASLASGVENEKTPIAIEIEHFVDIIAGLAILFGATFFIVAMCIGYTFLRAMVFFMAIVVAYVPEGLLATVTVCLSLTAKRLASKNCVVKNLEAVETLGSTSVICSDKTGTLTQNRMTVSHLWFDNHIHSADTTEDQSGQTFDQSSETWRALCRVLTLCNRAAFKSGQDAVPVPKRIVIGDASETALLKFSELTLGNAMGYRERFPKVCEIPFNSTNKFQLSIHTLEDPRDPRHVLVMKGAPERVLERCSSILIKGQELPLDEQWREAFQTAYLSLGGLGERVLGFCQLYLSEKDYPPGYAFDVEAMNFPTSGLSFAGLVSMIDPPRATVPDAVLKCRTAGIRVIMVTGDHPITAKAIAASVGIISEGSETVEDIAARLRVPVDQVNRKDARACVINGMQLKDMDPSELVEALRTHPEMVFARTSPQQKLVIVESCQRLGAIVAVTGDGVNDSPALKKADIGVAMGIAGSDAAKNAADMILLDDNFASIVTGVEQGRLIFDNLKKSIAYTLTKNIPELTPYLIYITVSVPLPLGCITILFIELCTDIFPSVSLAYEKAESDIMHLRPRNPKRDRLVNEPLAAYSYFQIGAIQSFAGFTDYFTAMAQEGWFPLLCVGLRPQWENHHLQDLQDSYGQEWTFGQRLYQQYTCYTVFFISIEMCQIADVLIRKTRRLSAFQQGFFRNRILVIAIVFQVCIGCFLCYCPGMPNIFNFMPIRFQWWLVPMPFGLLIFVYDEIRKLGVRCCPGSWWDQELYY
T1 sequence (P18434 whole entry partner): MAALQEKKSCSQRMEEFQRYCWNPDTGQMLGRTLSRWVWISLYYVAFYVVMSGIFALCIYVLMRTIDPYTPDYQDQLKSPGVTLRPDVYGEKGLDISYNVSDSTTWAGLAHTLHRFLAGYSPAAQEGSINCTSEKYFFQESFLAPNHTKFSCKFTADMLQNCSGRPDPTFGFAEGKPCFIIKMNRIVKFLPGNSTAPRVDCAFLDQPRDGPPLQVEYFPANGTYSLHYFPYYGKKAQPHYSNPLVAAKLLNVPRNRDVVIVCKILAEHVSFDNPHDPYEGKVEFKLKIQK
The data set is described as follows: H+,K+ adenosine triphosphatase inhibition (proton pump inhibition). The class given is biochemical, hog. As for the experimental part:
Proton pump inhibition was evaluated by the H^+,K^+ adenosine triphosphatase (to be referred to as "H^+,K^+ ATPase" hereinafter)inhibition.
That is, hog stomach was homogenized and subjected to ultracentrifugation to obtain a microsome fraction, and the microsomes were subjected to discontinuous density gradient ultracentrifugation using 0 and 9% Ficoll solutions to obtain a fraction containing H^+,K^+ ATPase. The H^+,K^+ ATPase activity was determined by measuring the released inorganic phosphorus using ATP as the substrate and an inorganic phosphorus measuring reagent PiSET(IATRON) manufactured by IATRON.

The subject of the next data set is Stress ulcer. Kind of data set: Stress ulcer. The format is in vivo, Wistar male rats. The settings on record: Rattus norvegicus; oral, 7 hours stress loading in water bath at 23° C.; read-out: Antiulcer activity, Stress ulcer, ED50 value. The protocol:
(Test Example 3) Stress ulcer
Basically according to the method of Takagi et al. (Japanese Journal of Pharmacology (to be referred to as "Japan. J. Pharmacol." hereinafter), vol.18, pp.9-18, each of the compounds shown in Examples was orally administered to Wistar male rats which have been subjected to fasting of 24 hours (free drinking). Each rat was transferred into a stress cage 30 minutes thereafter and subjected to stress loading by suspending the cage in a water bath controlled at 23° C. to such a depth that the rat was soaked up to its breast.
After 7 hours of the stress loading, the rat was recovered from the water bath to excise the stomach. The length (mm) of each ulcer developed in the stomach was measured under a stereoscopic microscope, and the total length of ulcers per one animal was used as an ulcer index. The dose of each test compound required to inhibit 50% of the ulcer index of the control group was calculated (ED50). The results are shown in Table 3, together with the results of the following pylorus ligation ulcer test.

Another data set has as its system Pylorus ligation ulcer. Kind of data set: Pylorus ligation ulcer. The format is in vivo, Wistar male rats. The settings on record: Rattus norvegicus; oral, 14 hours after pylorus ligation; read-out: Antiulcer activity, Pylorus ligation ulcer, ED50 value. The protocol: (Test Example 4) Pylorus ligation ulcer
Basically according to the method of Shay et al. (Gastroenterology, vol.5, pp.43-61, 1945), each of the compounds shown in Examples was orally administered to Wistar male rats which have been subjected to fasting of 48 hours (free drinking). After 30 minutes of the compound administration,the pylorus of each rat was ligated.
After 14 hours of standing, the stomach was excised. The length and width of each ulcer developed in the fore-stomach part were measured under a stereoscopic microscope to calculate the ulcer area (length×width). In accordance with the method of Takagi et al. (Japan. J. Pharmacol., vol.24, pp.357-361, 1974), ulcer index was calculated based on the total ulcer area per animal. The dose of each test compound required to inhibit 50% of the ulcer index of the control group was calculated (ED50).

For data set [2], the system named is ulcer induced by 0.15N hydrochloric acid and 60% ethanol. Kind of data set: Cell protection effect (hydrochloric acid/ethanol-induced ulcer). The format is in vivo, Wistar male rats. The settings on record: Rattus norvegicus, 1 h; oral, 30 minutes before 0.15N HCl / 60% ethanol 5 ml/kg. The protocol: (Test Example 5) Cell protection effect
Basically according to the method of Mizui and Doteuchi (Japan. J. Pharmacol., vol.33, pp.939-945, 1983), each of the compounds shown in Examples was orally administered to Wistar male rats which have been subjected to fasting of 24 hours (free drinking). After 30 minutes of the compound administration, a mixture solution of 0.15N hydrochloric acid and 60% ethanol was orally administered at a dose of 5 ml/kg. After 1 hour of standing, the stomach was excised. The length (mm) of each ulcer developed in the stomach was measured under a stereoscopic microscope to calculate the total length of ulcers per animal as an ulcer index. The dose of each test compound required to inhibit 50% of the ulcer index of the control group was calculated (ED50).

The next data set in a line: Acute toxicity test. The note with it: mouse, in vivo; oral, mice, one week observation. An excerpt:
(Test Example 6) Acute toxicity test
Each of the compounds shown in Examples was orally administered to three ICR male mice per group.

The subject of the next data set is gastric acid secretion. The data set is described as follows: Gastric acid secretion inhibition activity (pylorus-ligated, histamine-stimulated rats). The format is in vivo, Sprague-Dawley (SD) male rats. The settings on record: Rattus norvegicus; 30 mg/kg oral; pylorus ligated 3 hours later; histamine hydrochloride 30 mg/kg s.c.; total acidity over 3 hours; read-out: Acid secretion inhibition rate (%). The protocol:
(Test Example 2) Gastric acid secretion inhibition activity
Basically according to the method of Satoh et (Journal of Pharmacology and Experimental Therapeutics, vol.248, pp.806-815, 1988), each of the compounds shown in Examples was orally administered at a dose of 30 mg/kg to Sprague-Dawley (SD) male rats which have been subjected to fasting of 24 hours (free drinking).
After 3 hours of the compound administration, the pylorus of each rat was ligated under urethane anesthesia, and 30 mg of histamine hydrochloride per Kg was administered to the rat by subcutaneous injection. After 3 hours of the ligation, the gastric juice was collected to measure its volume and calculate total acidity (mEqH^+ /3 hours) by sodium hydroxide titration. The inhibition rate (%) was calculated by the following formula in which A represents the total gastric juice acidity of control group rat and B represents the total gastric juice acidity of test compound-administered group rat. [formula]

Setting [3] is: H+,K+ ATPase fraction from hog stomach microsomes, ATP substrate, released inorganic phosphorus, read-out: Enzyme inhibition IC50 value (converted).

For `COCC#Cc1nc(C#N)c(C#N)nc1C#CCOC` [Example 7, 5,6-bis(3-methoxy-1-propynyl)-2,3-dicyanopyrazine], in data set [1] (setting [3]), the IC50 was 1.88 µM. The ED50 in the data set on Stress ulcer is 5.6 mg/kg; with Pylorus ligation ulcer it was 1.2 mg/kg; in data set [2], 1.2 mg/kg. This compound also displayed an LD50 at 168 h in the data set “Acute toxicity test” of more than 1000 mg/kg.
For `CCOC(C)C#Cc1nc2ccccc2nc1C#CC(C)OCC` (stereo not drawn) [Example 10, 2,3-bis(3-ethoxy-1-butynyl)quinoxaline], the IC50 in data set [1] (setting [3]) was 96.2 µM. Also, the inhibition in vivo at 30 mg/kg in the data set with gastric acid secretion stood at 38%. In addition, the ED50 in the data set with Stress ulcer is 15 mg/kg; in the data set on Pylorus ligation ulcer, 11 mg/kg; in data set [2] it was 1.9 mg/kg.
On to `CCC(C#Cc1nc2ccccc2nc1C#CC(CC)OC)OC` (stereo not drawn) [Example 11, 2,3-bis(3-methoxy-1-pentynyl)quinoxaline], for which, in data set [1] (setting [3]), the IC50 was 30.4 µM. In addition, the inhibition in vivo at 30 mg/kg in the data set with gastric acid secretion came out at 27%. Moreover, the figures for the ED50 (in the data set with Pylorus ligation ulcer; in data set [2]) were 35 mg/kg and 41 mg/kg, respectively. The compound further showed an LD50 at 168 h in “Acute toxicity test” of more than 1000 mg/kg.
In turn, `COCCOC(C)(C)C#Cc1nc2ccccc2nc1C#CC(C)(C)OCCOC` [Example 43, 2,3-bis(3-(2-methoxyethoxy)-3-methyl-1-butynyl)quinoxaline] returned an ED50 in data set [2] of 13 mg/kg. Further, in the data set “Acute toxicity test”, the LD50 at 168 h was more than 1000 mg/kg.
As to `CCOCCOC(C)(C)C#Cc1nc2ccccc2nc1C#CC(C)(C)OCCOCC` [Example 44, 2,3-bis(3-(2-ethoxyethoxy)-3-methyl-1-butynyl)quinoxaline], the IC50 in data set [1] (setting [3]) is 88.9 µM. Moreover, the figures for the ED50 (in the data set with Stress ulcer; in data set [2]) were 59 mg/kg and 13 mg/kg, respectively. Moreover, in the data set “Acute toxicity test”, the LD50 at 168 h was more than 1000 mg/kg.
In data set [1], `CCCC#Cc1nc(C#N)c(C#N)nc1C#CCOC` [Example 81] gave a 50% inhibitory concentration (IC50) of 1.51 µM. Moreover, the inhibition in vivo at 30 mg/kg in the data set with gastric acid secretion stood at 61%. For the same compound, the figures for the ED50 in the data set on Stress ulcer and in the data set on Pylorus ligation ulcer were 42 mg/kg and 5.2 mg/kg, respectively. For the same compound, in the data set “Acute toxicity test”, the LD50 at 168 h is more than 1000 mg/kg.
Regarding `COC(C)(C)C#Cc1nc2ccccc2nc1C#CC(C)(C)OC` [Example 114], the IC50 in data set [1] (setting [3]) was 93 µM. In the data set with gastric acid secretion, the inhibition in vivo at 30 mg/kg turned out to be 30%. In data set [2], the 50% effective dose (ED50) stood at 22 mg/kg. The LD50 at 168 h in “Acute toxicity test” is more than 1000 mg/kg.
With `CCC(C#Cc1nc2ccccc2nc1C#CC(CC)OCCOC)OCCOC` (stereo not drawn) [Example 116], in data set [1] (setting [3]), the IC50 was 188 µM. For the same compound, the inhibition in vivo at 30 mg/kg in the data set with gastric acid secretion turned out to be 32%. The ED50 in the data set on Stress ulcer turned out to be 39 mg/kg; in data set [2], 2.7 mg/kg. The compound further yielded an LD50 at 168 h in “Acute toxicity test” of more than 1000 mg/kg.
For `CCOCCOC(C#Cc1nc2ccccc2nc1C#CC(CC)OCCOCC)CC` (stereo not drawn) [Example 117], the IC50 in data set [1] (setting [3]) is 123 µM. Also, the inhibition in vivo at 30 mg/kg in the data set with gastric acid secretion came out at 35%. In addition, the ED50 with Stress ulcer was 6.1 mg/kg; with Pylorus ligation ulcer, 28 mg/kg; in data set [2], 8 mg/kg. Besides, the LD50 at 168 h in “Acute toxicity test” was more than 1000 mg/kg.
For the compound `CCC(C#Cc1nc2ccccc2nc1C#CC(CC)OCCOC(C)C)OCCOC(C)C` (stereo not drawn) [Example 119], the IC50 in data set [1] (setting [3]) was 11.1 µM. Further, the ED50 in data set [2] worked out at 22 mg/kg.
As for `CCC(C#Cc1nc2ccc(C=O)cc2nc1C#CC(CC)OCCOC)OCCOC` (stereo not drawn) [Example 138], in data set [1] (setting [3]), the IC50 was 10.7 µM. In addition, the 50% effect level in data set [2] (ED50) was put at a dose of 9.8 mg/kg.

As usually defined, the IC50 is the midpoint of a concentration-inhibition curve. As usually defined, the ED50 is the midpoint of the dose-response relation. The term LD50 denotes the dose at which mortality reaches 50%. Lower therefore signals greater toxicity.
